This note sets out measurements from publication PMC7359744 (ACS chemical neuroscience, 2020).

The target of test [1] is human κ-opioid receptor (OPRK1) (Homo sapiens, UniProt P41145). The class given is cell-based. The note with it: read-out: KOR EC50 ± SEM.
For a further test, the system named is male C57 BL/6 mice. As to the kind of experiment: animal or person. The class given is in vivo.
Test [2] relates to human μ-opioid receptor β-arrestin-2. It counts as cell-based.

human κ-opioid receptor (OPRK1), sequence (P41145 whole entry): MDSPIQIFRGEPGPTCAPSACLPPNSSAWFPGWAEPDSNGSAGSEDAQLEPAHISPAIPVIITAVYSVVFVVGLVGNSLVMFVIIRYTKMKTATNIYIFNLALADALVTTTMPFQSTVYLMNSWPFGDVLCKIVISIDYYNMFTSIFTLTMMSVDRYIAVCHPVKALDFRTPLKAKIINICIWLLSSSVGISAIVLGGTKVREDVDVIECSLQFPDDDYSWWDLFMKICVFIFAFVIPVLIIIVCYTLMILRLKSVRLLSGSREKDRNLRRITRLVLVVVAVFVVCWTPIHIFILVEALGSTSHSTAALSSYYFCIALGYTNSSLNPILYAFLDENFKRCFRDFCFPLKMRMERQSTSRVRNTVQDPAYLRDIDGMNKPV

By EC50 is commonly meant the concentration needed to bring the measured effect to its halfway point. As for `COC(=O)[C@@H]1C=C(OC(=O)c2ccccc2)C(=O)[C@H]2[C@@]1(C)CC[C@H]1C(=O)O[C@H](c3ccoc3)C[C@]21C` [Compound 1, kurkinorin], the EC50 in test [1] was over 10 µM. In the test with male C57 BL/6 mice (mouse, in vivo), the “antinociceptive ED50, day 1” value came out at 5 ± 0.51 mg/kg and the “antinociceptive ED50, day 9” value is on record as 7.9 ± 0.11 mg/kg. For the same compound, the “antinociceptive tolerance on day 9 compared to day 1” value in the test with male C57 BL/6 mice (mouse, in vivo, sc) was “reduced tolerance compared to morphine”.

On to `C[C@@H](NC(=O)[C@@H](N)Cc1ccc(O)cc1)C(=O)NCC(=O)N(C)[C@@H](Cc1ccccc1)C(=O)NCCO` [DAMGO], for which, in test [2], the “Bias Factor” value came to 1 and the “β-arrestin recruitment % Efficacy” value is 42 ± 5 (97) %.

In general, ED50 refers to the midpoint of the dose-response relation. Take `CN1CC[C@]23c4c5ccc(O)c4O[C@H]2[C@@H](O)C=C[C@H]3[C@H]1C5` [Morphine]: the ED50 with male C57 BL/6 mice (Mus musculus, 24 h, read-out: antinociceptive ED50, day 1) turned out to be 6.43 ± 0.27 mg/kg. For the same compound, in the test on male C57 BL/6 mice (mouse, in vivo, sc), the “antinociceptive tolerance on day 9 compared to day 1” value was “significant induction of tolerance” and the onset of tolerance was 5 days.
